Experiment [1] has as its target T1, Bcl-2 homologous antagonist/killer (Homo sapiens, UniProt Q16611).
T1 sequence (Q16611 whole entry): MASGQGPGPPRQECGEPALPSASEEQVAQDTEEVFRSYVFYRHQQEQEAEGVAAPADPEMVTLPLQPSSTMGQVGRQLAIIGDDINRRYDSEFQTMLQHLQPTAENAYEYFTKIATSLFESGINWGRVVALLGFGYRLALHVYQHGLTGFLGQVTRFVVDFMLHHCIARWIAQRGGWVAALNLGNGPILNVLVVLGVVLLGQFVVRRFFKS
Briefly: Binding affinity to Bak/Mcl-1 (unknown origin) protein protein interaction by fluorescence polarization assay. For orientation: Polarisation of emitted light reports the rotation of a fluorescent probe.

The target in experiment [2] is T1, Bcl-2 homologous antagonist/killer. Kind of experiment: Inhibition of Mcl-1/Bak (unknown origin).

As usually defined, the Ki is the equilibrium dissociation constant of an inhibitor or competing ligand from its target. A lower Ki goes with a stronger hold on the target. The IC50 is the concentration that gives 50% inhibition.

Regarding `CC(C)Oc1cc(C(=O)Nc2ccc(C(=O)Nc3ccc(C(=O)O)cc3OC(C)C)nc2OC(C)C)ccc1N`, affinity in experiment [1] was put at a Ki of 1.79 µM.

On to `Cc1cc2c(C(=O)NC(C)c3ccc(Cl)cc3)c(O)c(O)cc2c(O)c1-c1c(C)cc2c(C(=O)NC(C)c3ccc(Cl)cc3)c(O)c(O)cc2c1O` (configuration not stated) [Apogossypol derivative, 8k], for which it took 0.23 µM to reach half-maximal inhibition in experiment [2] (IC50).
